Test results as given in patent US11661431B2, “Thienopyrrole compounds” (Gilead Sciences, Inc., priority 2021, dated 2023).

Assays:
TLR8 = TLR8 (Homo sapiens (Human), UniProt Q9NR97); assay: TLR8 human peripheral blood mononuclear cell (PBMC) cell-based assay (Compound A as agonist; TNFα and IL12p40 readout); settings: human PBMCs, TLR8 agonist Compound A at 800 nM, 6 hours, antagonist potency; read-out: TLR-8 EC50
TLR7 = TLR7 (Homo sapiens (Human), UniProt Q9NYK1); assay: TLR7 human peripheral blood mononuclear cell (PBMC) cell-based assay (GS-986 as agonist; IL-6 and IFNα readout); settings: human PBMCs, TLR7 agonist GS-986 at 400 nM, 6 hours, antagonist potency; read-out: TLR-7 EC50
Procedure, shortened: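 IL-6 and IFNα released into supernatant were quantified by electrochemiluminescence immunoassay. Before that, human PBMCs at 100,000 per well received a 10-point antagonist titration for 1 h, then TLR7 agonist for 6 more hours, all at 37 °C, 5% CO2.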

TLR8, sequence (Q9NR97 27-1041): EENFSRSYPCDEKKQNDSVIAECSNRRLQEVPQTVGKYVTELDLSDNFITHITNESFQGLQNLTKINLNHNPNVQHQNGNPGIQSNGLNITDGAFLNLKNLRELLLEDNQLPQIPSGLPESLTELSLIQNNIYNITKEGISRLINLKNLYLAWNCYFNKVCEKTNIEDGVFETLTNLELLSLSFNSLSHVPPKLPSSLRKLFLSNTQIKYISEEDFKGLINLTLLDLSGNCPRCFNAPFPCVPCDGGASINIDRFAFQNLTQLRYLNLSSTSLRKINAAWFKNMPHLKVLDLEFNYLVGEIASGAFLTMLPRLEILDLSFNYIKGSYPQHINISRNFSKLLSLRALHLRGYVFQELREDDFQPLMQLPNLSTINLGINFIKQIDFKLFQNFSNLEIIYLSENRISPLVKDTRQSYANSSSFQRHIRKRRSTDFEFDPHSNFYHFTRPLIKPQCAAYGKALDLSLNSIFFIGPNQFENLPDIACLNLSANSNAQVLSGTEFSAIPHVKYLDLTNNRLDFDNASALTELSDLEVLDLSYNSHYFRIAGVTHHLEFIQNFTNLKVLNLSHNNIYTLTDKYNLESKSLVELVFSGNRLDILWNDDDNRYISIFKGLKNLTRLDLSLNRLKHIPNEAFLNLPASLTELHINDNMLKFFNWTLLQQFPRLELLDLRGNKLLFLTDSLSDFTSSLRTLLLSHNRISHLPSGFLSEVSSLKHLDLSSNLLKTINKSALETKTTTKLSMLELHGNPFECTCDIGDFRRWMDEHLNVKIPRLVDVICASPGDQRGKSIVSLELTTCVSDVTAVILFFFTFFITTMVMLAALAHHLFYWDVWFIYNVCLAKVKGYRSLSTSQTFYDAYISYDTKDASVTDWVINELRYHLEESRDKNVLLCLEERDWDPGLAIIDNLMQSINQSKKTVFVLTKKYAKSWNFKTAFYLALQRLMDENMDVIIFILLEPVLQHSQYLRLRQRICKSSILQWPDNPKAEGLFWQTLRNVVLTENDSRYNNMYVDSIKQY
TLR7, sequence (Q9NYK1 27-1049): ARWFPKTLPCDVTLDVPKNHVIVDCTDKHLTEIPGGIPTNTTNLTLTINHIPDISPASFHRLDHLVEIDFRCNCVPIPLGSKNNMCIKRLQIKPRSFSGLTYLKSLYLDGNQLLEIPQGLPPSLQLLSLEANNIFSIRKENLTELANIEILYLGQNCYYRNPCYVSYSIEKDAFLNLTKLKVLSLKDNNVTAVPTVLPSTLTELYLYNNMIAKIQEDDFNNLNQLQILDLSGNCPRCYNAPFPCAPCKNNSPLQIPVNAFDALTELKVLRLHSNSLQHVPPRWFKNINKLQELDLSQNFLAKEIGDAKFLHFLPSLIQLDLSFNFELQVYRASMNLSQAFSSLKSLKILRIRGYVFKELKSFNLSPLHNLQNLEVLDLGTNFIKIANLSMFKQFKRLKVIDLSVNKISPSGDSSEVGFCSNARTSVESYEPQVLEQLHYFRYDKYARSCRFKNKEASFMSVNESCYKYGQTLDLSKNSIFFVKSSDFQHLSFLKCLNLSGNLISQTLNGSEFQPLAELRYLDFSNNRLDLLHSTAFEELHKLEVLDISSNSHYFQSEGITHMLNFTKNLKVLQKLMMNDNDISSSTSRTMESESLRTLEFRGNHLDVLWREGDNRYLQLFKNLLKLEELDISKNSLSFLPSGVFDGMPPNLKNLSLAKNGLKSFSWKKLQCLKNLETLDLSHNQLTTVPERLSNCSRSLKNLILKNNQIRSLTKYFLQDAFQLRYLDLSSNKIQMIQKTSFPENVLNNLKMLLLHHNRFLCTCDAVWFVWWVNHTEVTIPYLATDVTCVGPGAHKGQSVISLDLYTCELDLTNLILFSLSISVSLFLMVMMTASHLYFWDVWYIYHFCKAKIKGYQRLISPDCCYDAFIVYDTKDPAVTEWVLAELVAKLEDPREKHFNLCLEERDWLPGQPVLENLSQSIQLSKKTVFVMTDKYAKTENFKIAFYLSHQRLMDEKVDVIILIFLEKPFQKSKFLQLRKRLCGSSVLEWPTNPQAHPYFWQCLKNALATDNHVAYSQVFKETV

Row | SMILES | EC50 (TLR8) [nM] | EC50 (TLR7) [nM]
1 | Cc1c(-c2[nH]c3sc([C@@H]4C[C@@H]5C[C@H]4CN5C(=O)[C@H]4C[C@H](F)CN4)c(C)c3c2C(C)C)cn2ncnc2c1C [Example 148] | 15.9 | 0.51
2 | Cc1c(-c2[nH]c3sc([C@@H]4C[C@@H]5C[C@H]4CN5C(=O)[C@@H]4C[C@H](F)CN4)c(C)c3c2C(C)C)cn2ncnc2c1C [Example 149] | 9.53 | 0.72
3 | Cc1c(-c2[nH]c3sc([C@@H]4C[C@@H]5C[C@H]4CN5C(=O)[C@@H]4C[C@@H](F)CN4)c(C)c3c2C(C)C)cn2ncnc2c1C [Example 150] | 14.2 | 1.64
4 | Cc1c(-c2[nH]c3sc(C4CC(C(=O)N5CCNCC5)C4)c(C)c3c2C(C)C)cn2ncnc2c1C (stereo not shown) [Example 151, (3-(5-(7,8-dimethyl-[1,2,4]triazolo[1,5-a]pyridin-6-yl)-4-isopropyl-3-methyl-6H-thieno[2,3-b]pyrrol-2-yl)cyclobutyl)(piperazin-1-yl)methanone] | 0.99 | 0.26
5 | Cc1c(-c2[nH]c3sc([C@@H]4C[C@@H]5C[C@H]4CN5Cc4n[nH]c(=O)[nH]4)c(C)c3c2C(C)C)cn2ncnc2c1C [Example 152] | 2.86 | 0.42
6 | Cc1c(-c2[nH]c3sc([C@@H]4C[C@@H]5C[C@H]4CN5C4(CC#N)CN(S(C)(=O)=O)C4)c(C)c3c2C(C)C)cn2ncnc2c1C [Example 153] | 23.2 | 0.77
7 | Cc1c(-c2[nH]c3sc([C@@H]4C[C@@H]5C[C@H]4CN5Cc4ccc(Br)cc4)c(C)c3c2C(C)C)cn2ncnc2c1C [Example 154] | 0.85 | 0.44
8 | Cc1c(-c2[nH]c3sc([C@@H]4C[C@@H]5C[C@H]4CN5CCCS(C)(=O)=O)c(C)c3c2C(C)C)cn2ncnc2c1C [Example 164] | < 0.05 | 0.23
9 | Cc1c(-c2[nH]c3sc([C@@H]4C[C@@H]5C[C@H]4CN5CC#N)c(C)c3c2C(C)C)cn2ncnc2c1C [Example 165] | 0.41 | 0.13
10 | Cc1c(-c2[nH]c3sc([C@@H]4C[C@@H]5C[C@H]4CN5CCC#N)c(C)c3c2C(C)C)cn2ncnc2c1C [Example 166] | 0.48 | 1.2
11 | Cc1c(-c2[nH]c3sc([C@@H]4C[C@@H]5C[C@H]4CN5C4COC4)c(C)c3c2C(C)C)cn2ncnc2c1C [Example 167] | 0.45 | 0.09
12 | Cc1c(-c2[nH]c3sc([C@@H]4C[C@@H]5C[C@H]4CN5C4CCS(=O)(=O)CC4)c(C)c3c2C(C)C)cn2ncnc2c1C [Example 168] | 0.96 | 0.74
13 | Cc1c(-c2[nH]c3sc([C@@H]4C[C@@H]5C[C@H]4CN5C4CC5(C4)CS(=O)(=O)C5)c(C)c3c2C(C)C)cn2ncnc2c1C [Example 169] | 0.07 | 0.29
14 | Cc1c(-c2[nH]c3sc([C@@H]4C[C@@H]5C[C@H]4CN5Cc4cccc(=O)[nH]4)c(C)c3c2C(C)C)cn2ncnc2c1C [Example 170] | 0.26 | < 0.05
15 | Cc1c(-c2[nH]c3sc([C@@H]4C[C@@H]5C[C@H]4CN5Cc4ccc[nH]c4=O)c(C)c3c2C(C)C)cn2ncnc2c1C [Example 171] | 0.06 | < 0.05
16 | Cc1c(-c2[nH]c3sc([C@@H]4C[C@@H]5C[C@H]4CN5Cc4cccn(C(F)F)c4=O)c(C)c3c2C(C)C)cn2ncnc2c1C [Example 172] | 0.82 | 3.03
17 | Cc1c(-c2[nH]c3sc([C@@H]4C[C@@H]5C[C@H]4CN5Cc4c[nH]nn4)c(C)c3c2C(C)C)cn2ncnc2c1C [Example 174] | 0.09 | < 0.05
18 | Cc1c(-c2[nH]c3sc([C@@H]4C[C@@H]5C[C@H]4CN5Cc4cc[nH]c(=O)c4)c(C)c3c2C(C)C)cn2ncnc2c1C [Example 177] | 0.07 | 0.5
19 | Cc1c(-c2[nH]c3sc([C@@H]4C[C@@H]5C[C@H]4CN5Cc4ccc(=O)[nH]c4)c(C)c3c2C(C)C)cn2ncnc2c1C [Example 178] | 0.16 | 0.06
20 | Cc1c(-c2[nH]c3sc([C@@H]4C[C@@H]5C[C@H]4CN5CCS(N)(=O)=O)c(C)c3c2C(C)C)cn2ncnc2c1C [Example 180] | 0.17 | < 0.05
21 | Cc1c(-c2[nH]c3sc([C@@H]4C[C@@H]5C[C@H]4CN5CCS(=O)(=O)N(C)C)c(C)c3c2C(C)C)cn2ncnc2c1C [Example 181] | 1.23 | 0.27
22 | CNS(=O)(=O)CCN1C[C@@H]2C[C@H]1C[C@H]2c1sc2[nH]c(-c3cn4ncnc4c(C)c3C)c(C(C)C)c2c1C [Example 182] | 0.32 | 0.07
23 | Cc1c(-c2[nH]c3sc(C4CC5(C4)CC(N(C4COC4)C4COC4)C5)c(C)c3c2C(C)C)cn2ncnc2c1C (stereo not shown) [Example 188] | 27.2 | 5.64

Other lines, results leading:

Row | EC50 (TLR8) [nM] | EC50 (TLR7) [nM] | SMILES
24 | 0.51 | < 0.05 | Cc1c(-c2[nH]c3sc([C@@H]4C[C@@H]5C[C@H]4CN5CC(=O)N=S(C)(C)=O)c(C)c3c2C(C)C)cn2ncnc2c1C [Example 155]
25 | 9.8 | < 0.05 | Cc1c(C2CCN(S(=O)(=O)N3CCNCC3)CC2)sc2[nH]c(-c3cc(C)c4ncnn4c3)c(C(C)C)c12 [Example 156]
26 | 29.6 | 0.17 | Cc1c(C2CCN(S(=O)(=O)N3CCN(C)CC3)CC2)sc2[nH]c(-c3cc(C)c4ncnn4c3)c(C(C)C)c12 [Example 157]
27 | 61.8 | 0.15 | Cc1c(C2CCN(C(=O)[C@H]3COC(C)(C)CN3)CC2)sc2[nH]c(-c3cc(C)c4ncnn4c3)c(C(C)C)c12 [Example 158]
28 | 31.5 | 0.94 | Cc1c(C2CCN(C(=O)[C@@H]3COC(C)(C)CN3)CC2)sc2[nH]c(-c3cc(C)c4ncnn4c3)c(C(C)C)c12 [Example 159]
29 | 6.51 | 0.26 | COCc1c(C2CCN(CC(N)=O)CC2)sc2[nH]c(-c3cc(C)c4ncnn4c3)c(C(C)C)c12 [Example 160]
30 | 7.29 | 0.13 | Cc1c(C2CCCN(CC(N)=O)CC2)sc2[nH]c(-c3cc(C)c4ncnn4c3)c(C(C)C)c12 (stereo not shown) [Example 161, 2-(4-(4-isopropyl-3-methyl-5-(8-methyl-[1,2,4]triazolo[1,5-a]pyridin-6-yl)-6H-thieno[2,3-b]pyrrol-2-yl)azepan-1-yl)acetamide]
31 | 24.3 | 3.41 | Cc1cc(-c2[nH]c3sc(C4CCN(CC(N)=O)CC4)c(C(F)F)c3c2C(C)C)cn2ncnc12 [Example 162]
32 | 0.38 | 0.3 | Cc1c(-c2[nH]c3sc([C@@H]4C[C@@H]5C[C@H]4CN5CC(=O)N(C)C)c(C)c3c2C(C)C)cn2ncnc2c1C [Example 163]
33 | 1.06 | 0.15 | Cc1c(-c2[nH]c3sc([C@@H]4C[C@@H]5C[C@H]4CN5CC4(F)COC4)c(C)c3c2C(C)C)cn2ncnc2c1C [Example 173]
34 | 0.12 | 0.08 | Cc1c(-c2[nH]c3sc([C@@H]4C[C@@H]5C[C@H]4CN5Cc4nnc[nH]4)c(C)c3c2C(C)C)cn2ncnc2c1C [Example 176]
35 | 3.53 | 1.71 | Cc1c(-c2[nH]c3sc([C@@H]4C[C@@H]5C[C@H]4CN5CC(=O)OC(C)(C)C)c(C)c3c2C(C)C)cn2ncnc2c1C [Example 179, tert-butyl 2-((1S,4R,5R)-5-(5-(7,8-dimethyl-[1,2,4]triazolo[1,5-a]pyridin-6-yl)-4-isopropyl-3-methyl-6H-thieno[2,3-b]pyrrol-2-yl)-2-azabicyclo[2.2.1]heptan-2-yl)acetate]
36 | 0.34 | 1.27 | Cc1c(-c2[nH]c3sc([C@@H]4C[C@@H]5C[C@H]4CN5CC(=O)NC4CC4)c(C)c3c2C(C)C)cn2ncnc2c1C [Example 184]
37 | 0.57 | 1.89 | Cc1c(-c2[nH]c3sc([C@@H]4C[C@@H]5C[C@H]4CN5CC(=O)NC(C)C)c(C)c3c2C(C)C)cn2ncnc2c1C [Example 185]
38 | 0.45 | 0.66 | CCNC(=O)CN1C[C@@H]2C[C@H]1C[C@H]2c1sc2[nH]c(-c3cn4ncnc4c(C)c3C)c(C(C)C)c2c1C [Example 186]
39 | 1.09 | 0.2 | Cc1c(-c2[nH]c3sc(C4CC5(CC(N)C5)C4)c(C)c3c2C(C)C)cn2ncnc2c1C (stereo not shown) [Example 187]
40 | 30.9 | 2.23 | Cc1c(C2C[C@H]3CC[C@@H]2CN3)sc2[nH]c(-c3cc(C)c4ncnn4c3)c(C(C)C)c12 (stereo partly shown) [Example 189]
41 | > 1000 | 274 | Cc1c(C2CC2C(=O)N2CCNCC2)sc2[nH]c(-c3cc(C)c4ncnn4c3)c(C(C)C)c12 (stereo not shown) [Example 192]
42 | 2.87 | 0.2 | Cc1c(C23CNCC2C3)sc2[nH]c(-c3cc(C)c4ncnn4c3)c(C(C)C)c12 (stereo not shown) [Example 193]
43 | 9.52 | 0.2 | Cc1c(C23CNCCC2C3)sc2[nH]c(-c3cc(C)c4ncnn4c3)c(C(C)C)c12 (stereo not shown) [Example 194]
44 | 2.12 | 0.05 | Cc1c(C23CCNCC2C3)sc2[nH]c(-c3cc(C)c4ncnn4c3)c(C(C)C)c12 (stereo not shown) [Example 195]
45 | 69.5 | 0.72 | Cc1c(C23CC2CCN(CC(N)=O)C3)sc2[nH]c(-c3cc(C)c4ncnn4c3)c(C(C)C)c12 (stereo not shown) [Example 196]
46 | 29.8 | 1.74 | Cc1c(C23CC2CN(CC(N)=O)C3)sc2[nH]c(-c3cc(C)c4ncnn4c3)c(C(C)C)c12 (stereo not shown) [Example 197]
47 | 13.8 | 5.06 | Cc1c(C23CNCC2C3(F)F)sc2[nH]c(-c3cc(C)c4ncnn4c3)c(C(C)C)c12 (stereo not shown) [Example 198]
48 | 14.8 | 0.47 | Cc1c(C23CCN(CC(N)=O)CC2C3)sc2[nH]c(-c3cc(C)c4ncnn4c3)c(C(C)C)c12 (stereo not shown) [Example 199]
49 | 332 | 4.05 | Cc1c(C23CN(CC(N)=O)CC2C3(F)F)sc2[nH]c(-c3cc(C)c4ncnn4c3)c(C(C)C)c12 (stereo not shown) [Example 200]
50 | 0.36 | < 0.05 | Cc1c(C2C3CNCC32)sc2[nH]c(-c3cc(C)c4ncnn4c3)c(C(C)C)c12 (stereo not shown) [Example 201]
